Data set [1] deals with T1, UGT1A6 (Homo sapiens, UniProt P19224).
T1 sequence (P19224 27-532): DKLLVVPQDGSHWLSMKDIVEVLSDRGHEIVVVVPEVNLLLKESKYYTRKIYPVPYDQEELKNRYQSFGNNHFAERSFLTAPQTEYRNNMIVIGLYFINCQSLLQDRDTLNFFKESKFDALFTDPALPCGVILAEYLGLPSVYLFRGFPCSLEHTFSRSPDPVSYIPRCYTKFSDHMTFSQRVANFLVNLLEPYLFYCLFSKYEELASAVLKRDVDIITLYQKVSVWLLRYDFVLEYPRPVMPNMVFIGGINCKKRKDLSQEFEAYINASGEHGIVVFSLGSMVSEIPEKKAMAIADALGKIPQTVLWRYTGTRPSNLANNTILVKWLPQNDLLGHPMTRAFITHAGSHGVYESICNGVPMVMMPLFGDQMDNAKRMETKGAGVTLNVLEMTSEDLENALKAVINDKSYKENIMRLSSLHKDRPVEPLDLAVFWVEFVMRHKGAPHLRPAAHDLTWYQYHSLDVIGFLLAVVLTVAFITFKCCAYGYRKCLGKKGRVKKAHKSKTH
The experiment in a line: Inhibition by aprepitant of UGT1A6. As to conditions: UGT1A6 enzyme, pH 7.5, probe 4-MU. Format: in vitro ADME.

Another data set has as its target T2, UGT2B15 (Homo sapiens, UniProt P54855).
T2 sequence (P54855 24-530): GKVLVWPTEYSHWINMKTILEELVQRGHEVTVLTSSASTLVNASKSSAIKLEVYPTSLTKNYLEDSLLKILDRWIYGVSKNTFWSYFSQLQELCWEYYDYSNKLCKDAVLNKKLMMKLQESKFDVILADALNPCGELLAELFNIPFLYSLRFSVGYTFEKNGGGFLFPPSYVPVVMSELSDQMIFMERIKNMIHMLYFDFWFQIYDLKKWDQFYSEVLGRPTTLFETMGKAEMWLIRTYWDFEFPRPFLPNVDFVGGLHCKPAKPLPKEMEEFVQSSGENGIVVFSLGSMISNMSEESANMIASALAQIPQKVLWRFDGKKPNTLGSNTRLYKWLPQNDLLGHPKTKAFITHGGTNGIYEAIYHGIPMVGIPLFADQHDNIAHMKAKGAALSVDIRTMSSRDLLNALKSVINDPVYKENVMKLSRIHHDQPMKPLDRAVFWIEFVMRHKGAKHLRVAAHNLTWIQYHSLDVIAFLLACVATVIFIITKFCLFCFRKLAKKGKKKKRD
The experiment in a line: Screening for aprepitant glucuronidation, UGT2B15 Supersomes. Format: in vitro ADME. As to conditions: UGT2B15, 5 and 250 µM aprepitant.

A further data set concerns the target T3, UGT1A9 (Homo sapiens, UniProt O60656).
T3 sequence (O60656 26-530): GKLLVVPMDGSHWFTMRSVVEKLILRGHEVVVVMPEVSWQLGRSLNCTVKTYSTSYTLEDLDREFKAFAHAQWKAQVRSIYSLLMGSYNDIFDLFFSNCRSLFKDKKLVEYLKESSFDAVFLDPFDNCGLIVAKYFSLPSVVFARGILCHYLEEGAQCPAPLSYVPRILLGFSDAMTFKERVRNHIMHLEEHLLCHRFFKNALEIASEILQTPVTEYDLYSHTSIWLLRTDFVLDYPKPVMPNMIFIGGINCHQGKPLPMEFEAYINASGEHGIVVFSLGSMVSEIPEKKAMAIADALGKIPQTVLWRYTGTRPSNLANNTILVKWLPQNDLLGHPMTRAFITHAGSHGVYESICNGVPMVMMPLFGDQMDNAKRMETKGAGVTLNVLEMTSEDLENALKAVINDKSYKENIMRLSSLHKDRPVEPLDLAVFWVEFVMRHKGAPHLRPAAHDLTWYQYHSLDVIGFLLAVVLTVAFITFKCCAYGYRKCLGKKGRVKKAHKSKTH
The experiment in a line: Screening for aprepitant glucuronidation, UGT1A9 Supersomes. Format: in vitro ADME. As to conditions: UGT1A9, 5 and 250 µM aprepitant.

Data set [2] addresses T1, UGT1A6. Put plainly: Screening for aprepitant glucuronidation, UGT1A6 Supersomes. In kind it is in vitro ADME. Particulars: UGT1A6, 5 and 250 µM aprepitant.
A further data set deals with T4, UGT1A1 (Homo sapiens, UniProt P22309).
T4 sequence (P22309 26-533): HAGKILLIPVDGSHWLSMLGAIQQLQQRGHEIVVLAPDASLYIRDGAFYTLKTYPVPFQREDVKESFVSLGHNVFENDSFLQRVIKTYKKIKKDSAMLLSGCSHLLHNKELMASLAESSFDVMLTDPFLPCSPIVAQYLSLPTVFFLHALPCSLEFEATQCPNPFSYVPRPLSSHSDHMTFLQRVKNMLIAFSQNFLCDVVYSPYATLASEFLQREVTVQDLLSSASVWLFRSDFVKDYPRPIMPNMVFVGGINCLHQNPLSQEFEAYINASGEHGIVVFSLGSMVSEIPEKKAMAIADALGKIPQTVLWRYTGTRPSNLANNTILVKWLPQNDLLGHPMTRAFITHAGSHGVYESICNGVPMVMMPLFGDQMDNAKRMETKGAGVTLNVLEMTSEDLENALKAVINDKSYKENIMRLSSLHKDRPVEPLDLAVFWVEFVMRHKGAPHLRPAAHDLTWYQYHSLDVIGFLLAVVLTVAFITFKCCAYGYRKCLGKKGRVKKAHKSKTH
Put plainly: Screening for aprepitant glucuronidation, UGT1A1 Supersomes. Format: in vitro ADME. As to conditions: UGT1A1, 5 and 250 µM aprepitant.

The next data set concerns the target T5, UGT2B7 (Homo sapiens, UniProt P16662).
T5 sequence (P16662 24-529): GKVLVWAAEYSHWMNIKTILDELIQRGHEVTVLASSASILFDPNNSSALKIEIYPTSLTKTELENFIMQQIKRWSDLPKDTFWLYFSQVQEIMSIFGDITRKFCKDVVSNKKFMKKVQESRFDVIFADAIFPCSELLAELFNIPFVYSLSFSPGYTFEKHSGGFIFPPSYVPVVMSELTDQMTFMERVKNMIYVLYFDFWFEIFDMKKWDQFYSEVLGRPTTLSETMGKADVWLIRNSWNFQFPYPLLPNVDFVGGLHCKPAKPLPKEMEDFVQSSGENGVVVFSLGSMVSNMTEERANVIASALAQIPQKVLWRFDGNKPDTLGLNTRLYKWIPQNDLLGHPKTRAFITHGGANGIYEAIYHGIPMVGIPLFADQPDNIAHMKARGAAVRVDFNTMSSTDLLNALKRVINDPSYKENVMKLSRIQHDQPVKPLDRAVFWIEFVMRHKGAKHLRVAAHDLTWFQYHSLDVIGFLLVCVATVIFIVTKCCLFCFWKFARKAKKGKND
The experiment in a line: Ki determination of aprepitant on 4-MU-G, M-6-G and AZT-G formation in UGT2B7.

On to `C[C@@H](O[C@H]1OCCN(Cc2n[nH]c(=O)[nH]2)[C@H]1c1ccc(F)cc1)c1cc(C(F)(F)F)cc(C(F)(F)F)c1` [aprepitant, Aprepitant], for which, on UGT1A6 [1], testing at 10 µM gave an inhibition of 19%. Besides, the AP-G formation entry on UGT2B15, on UGT1A9, at UGT1A6 [2] and on UGT1A1 was “not detected” throughout. In addition, the inhibition model result against UGT2B7 (UGT2B7, substrate 4-MU) is given as “competitive inhibition model”; on UGT2B7 (UGT2B7, substrate AZT), “competitive inhibition model”; on UGT2B7 (UGT2B7, substrate morphine), “noncompetitive model”.

The values are drawn from PMC4844176 (Xenobiotica; the fate of foreign compounds in biological …, 2015).
